# Data published in patent publication US20240358693A1, “METHODS OF TREATING PAIN” (Aisa Pharma, Inc., priority 2023, published 2024).
# Tested on: participants with SSc-RP
# Test: Average duration of weekly RP attacks (minutes)
# Type: in vivo, human
# Settings: Tadalafil 5 mg
# Description: The absolute change in average duration of weekly RP attacks from baseline to the end of each dosing period was and will be a secondary outcome variable. The sponsor-developed participant-informed diary was and will be used to record data. Average duration of weekly RP attacks is defined as the total duration of RP attacks divided by total number of RP attacks within the last 7 days of each dosing period. Total duration of RP attacks during the last 7 days of screening period divided by the total number of RP attacks will be used as baseline for the analysis of all periods. The variable will be calculated similar to frequency data as before.
# [1] = n=1, Excluding Outliers, ITT Part A
# [2] = Baseline RCS subgroup 2 (unnamed), ITT Part A
# [3] = Excluding Outliers, Baseline RCS subgroup 2 (unnamed), ITT Part A
# [4] = Excluding Outliers, ITT Population - Part A
# [5] = Excluding Outliers, by Baseline RCS, subgroup 2, ITT Population - Part A
# [6] = by Baseline RCS, subgroup 2, ITT Population - Part A
smiles,measurement,setting,value
"CN1CC(=O)N2[C@H](c3ccc4c(c3)OCO4)c3[nH]c4ccccc4c3C[C@@H]2C1=O [Tadalafil, tadalafil]","Average Duration of Weekly Symptomatic RP Attacks, Change from Baseline, Mean",[1],-4.58 min
same,"Average Duration of Weekly Symptomatic RP Attacks, Change from Baseline, Median",[1],-4.58 min
same,"Average Duration of Weekly Symptomatic RP Attacks, Mean",[1],6.00 min
same,"Average Duration of Weekly Symptomatic RP Attacks, Median",[1],6.00 min
same,"Average Duration of Weekly Symptomatic RP Attacks, Percent Change from Baseline, Mean",[1],−43.31%
same,"Average Duration of Weekly Symptomatic RP Attacks, Percent Change from Baseline, Median",[1],−43.31%
same,"Average Duration of Weekly Symptomatic RP Attacks, Change from Baseline, Mean","n=2, ITT Part A",140.74 min
same,"Average Duration of Weekly Symptomatic RP Attacks, Change from Baseline, Median","n=2, ITT Part A",140.74 min
same,"Average Duration of Weekly Symptomatic RP Attacks, Mean","n=2, ITT Part A",412.29 min
same,"Average Duration of Weekly Symptomatic RP Attacks, Median","n=2, ITT Part A",412.29 min
same,"Average Duration of Weekly Symptomatic RP Attacks, Percent Change from Baseline, Mean","n=2, ITT Part A",5.21%
same,"Average Duration of Weekly Symptomatic RP Attacks, Percent Change from Baseline, Median","n=2, ITT Part A",5.21%
same,"Average Duration of Weekly Symptomatic RP Attacks, Change from Baseline, Mean",[2],140.74 min
same,"Average Duration of Weekly Symptomatic RP Attacks, Change from Baseline, Median",[2],140.74 min
same,"Average Duration of Weekly Symptomatic RP Attacks, Mean",[2],412.29 min
same,"Average Duration of Weekly Symptomatic RP Attacks, Median",[2],412.29 min
same,"Average Duration of Weekly Symptomatic RP Attacks, Percent Change from Baseline, Mean",[2],5.21%
same,"Average Duration of Weekly Symptomatic RP Attacks, Percent Change from Baseline, Median",[2],5.21%
same,"Average Duration of Weekly Symptomatic RP Attacks, Change from Baseline, Mean",[3],-4.58 min
same,"Average Duration of Weekly Symptomatic RP Attacks, Change from Baseline, Median",[3],-4.58 min
same,"Average Duration of Weekly Symptomatic RP Attacks, Mean",[3],6.00 min
same,"Average Duration of Weekly Symptomatic RP Attacks, Median",[3],6.00 min
same,"Average Duration of Weekly Symptomatic RP Attacks, Percent Change from Baseline, Mean",[3],−43.31%
same,"Average Duration of Weekly Symptomatic RP Attacks, Percent Change from Baseline, Median",[3],−43.31%
same,"Average Duration of Weekly RP Attacks (All Attacks) Change from Baseline, Mean",[4],-4.98 min
same,"Average Duration of Weekly RP Attacks (All Attacks) Change from Baseline, Median",[4],-4.98 min
same,"Average Duration of Weekly RP Attacks (All Attacks) Percent Change from Baseline, Mean",[4],−45.55%
same,"Average Duration of Weekly RP Attacks (All Attacks) Percent Change from Baseline, Median",[4],−45.55%
same,"Average Duration of Weekly RP Attacks (All Attacks), Mean",[4],5.95 min
same,"Average Duration of Weekly RP Attacks (All Attacks), Median",[4],5.95 min
same,"Average Duration of Weekly RP Attacks (All Attacks) Change from Baseline, Mean",[5],-4.98 min
same,"Average Duration of Weekly RP Attacks (All Attacks) Change from Baseline, Median",[5],-4.98 min
same,"Average Duration of Weekly RP Attacks (All Attacks) Percent Change from Baseline, Mean",[5],−45.55%
same,"Average Duration of Weekly RP Attacks (All Attacks) Percent Change from Baseline, Median",[5],−45.55%
same,"Average Duration of Weekly RP Attacks (All Attacks), Mean",[5],5.95 min
same,"Average Duration of Weekly RP Attacks (All Attacks), Median",[5],5.95 min
same,"Average Duration of Weekly RP Attacks (All Attacks) Change from Baseline, Mean",ITT Part A,91.80 min
same,"Average Duration of Weekly RP Attacks (All Attacks) Change from Baseline, Median",ITT Part A,91.80 min
same,"Average Duration of Weekly RP Attacks (All Attacks) Percent Change from Baseline, Mean",ITT Part A,−7.81%
same,"Average Duration of Weekly RP Attacks (All Attacks) Percent Change from Baseline, Median",ITT Part A,−7.81%
same,"Average Duration of Weekly RP Attacks (All Attacks), Mean",ITT Part A,412.26 min
same,"Average Duration of Weekly RP Attacks (All Attacks), Median",ITT Part A,412.26 min
same,"Average Duration of Weekly RP Attacks (All Attacks) Change from Baseline, Mean",[6],91.80 min
same,"Average Duration of Weekly RP Attacks (All Attacks) Change from Baseline, Median",[6],91.80 min
same,"Average Duration of Weekly RP Attacks (All Attacks) Percent Change from Baseline, Mean",[6],−7.81%
same,"Average Duration of Weekly RP Attacks (All Attacks) Percent Change from Baseline, Median",[6],−7.81%
same,"Average Duration of Weekly RP Attacks (All Attacks), Mean",[6],412.26 min
same,"Average Duration of Weekly RP Attacks (All Attacks), Median",[6],412.26 min
